Test results published in US11008321B2, “Crystalline form of an avibactam derivative” (ARIXA PHARMACEUTICALS, INC., priority 2019, dated 2021).

Experiments:
[1] = trans isomer vs cis isomer; cited from earlier work
[2] = Jet milling, crystalline form by XRPD before and after; assay type: physicochemical; details: jet milled, particle size about 8.6 μm
Procedure: X-ray powder diffraction (XPRD) analysis was performed using a Panalytical X-Pert Powder XPRD (Malvem Panalytical Ltd.) on a Si zero-background holder. The 20 position was calibrated against a Panalytical Si standard disc. The X-ray wavelength was Kα2/Kα1 (1.540598 Å/1.544425 Å) at a 0.5 intensity ratio. The X-ray tube was set at an output voltage of 45 kV and a current of 40 mA. A ⅛° fixed divergence slit was used and the diffraction patterns were obtained from 3° to 40° (°2θ) in a continuous scan mode using a step size of 0.01310 (2θ) and a scan speed of 0.145 deg/min. Crystalline anhydrate (1) was jet milled to obtain a uniform particle size distribution centered at a about 8.6 μm. An Alpine 50AS (PDS-PL-JM-01) Jet Mill (Hosokawa Alpine) was used to prepare the formulation. The injector gas pressure was 4.0 Bar and the grinding gas pressure was 3.5 Bar. Five (5) gm of crystalline anhydrate (1) was gradually added to the jet mill and collected. The milled product was stored at a temperature from 2° C. to 8° C.

[3] = Thermogravimetric analysis; assay type: physicochemical; details: 10° C./min, N2
Procedure: Thermogravimetric analysis was performed using a TA Instruments Q500 TGA calibrated using a nickel reference standard. Samples were placed in an open platinum pan and after equilibrating at 35° C., the samples were heated under a nitrogen (N2) atmosphere at a rate of 10° C./min to a final temperature of 200° C. TGA curves for crystalline ethyl 3-(((((1R,2S,5R)-2-carbamoyl-7-oxo-1,6-diazabicyclo[3.2.1]octan-6-yl)oxy)sulfonyl)oxy)-2,2-dimethylpropanoate anhydrate are shown in FIGS. 2 and 4 show a weight loss of 9.7% between 125° C. to 150° C. The weight loss form 30° C. to 125° C. was 0.77%.

[4] = Stability on exposure to ambient conditions and formulation processing; assay type: physicochemical
[5] = Stability in aqueous suspension formulation (XRPD); assay type: physicochemical; details: 25° C., 24 hours; 0.25 wt % Tween 80, 10 wt % PEG 400, 0.5 wt % methylcellulose, pH 3.0 citrate buffer
Procedure: X-ray powder diffraction (XPRD) analysis was performed using a Panalytical X-Pert Powder XPRD (Malvem Panalytical Ltd.) on a Si zero-background holder. The 20 position was calibrated against a Panalytical Si standard disc. The X-ray wavelength was Kα2/Kα1 (1.540598 Å/1.544425 Å) at a 0.5 intensity ratio. The X-ray tube was set at an output voltage of 45 kV and a current of 40 mA. A ⅛° fixed divergence slit was used and the diffraction patterns were obtained from 3° to 40° (°2θ) in a continuous scan mode using a step size of 0.01310 (2θ) and a scan speed of 0.145 deg/min. An aqueous formulation of crystalline anhydrate (1) was prepared by suspending 100 mg crystalline anhydrate (1) in 100 mL of an aqueous solution containing 0.25 wt % Tween® 80, 10 wt % PEG 400, 0.5 wt % methylcellulose (400 cps), and a pH 3.0 citrate buffer. The suspension was sonicated and equilibrated for 24 hours at 25° C. before filtering out the crystalline anhydrate (1).

[6] = Dynamic vapor sorption (hygroscopicity); assay type: physicochemical
Procedure: The hygroscopicity of crystalline ethyl 3-(((((1R,2S,5R)-2-carbamoyl-7-oxo-1,6-diazabicyclo[3.2.1]octan-6-yl)oxy)sulfonyl)oxy)-2,2-dimethylpropanoate anhydrate (1) was evaluated during one vapor sorption/desorption cycle using a SMS DVS Intrinsic from Surface Measurement Systems set at 25° C., with a nitrogen (N2) gas flow rate of 200 mL/min, a dm/dt of 0.02%/min and a minimum dm/dt stability duration of 10 min. Samples (10 mg to 20 mg) were first dried at 25° C. for 180 min under a nitrogen atmosphere. The samples were considered equilibrated with the weight change during a 2-min interval was less than 0.01%. To evaluate the DVS the samples were exposed to a humidity cycle ramped/de-ramped from 5% RH to 95% RH at 10% RH intervals. At each humidity interval, the samples were equilibrated as determined by a less than 0.01% weight change during 5 min.

| crystalline form before and after jet-milling (XRPD) [2] | weight loss (TGA) ([3]; 30° C. to 125° C.) | weight loss (TGA) ([3]; between 125° C. to 150° C.) | stability following exposure to ambient conditions ([4]; 25° C./60% RH) | stability during formulation processing conditions ([4]; formulation processing conditions) | stability in an aqueous suspension (XRPD similarity) [5] | change of crystalline form during water absorption/desorption (reversibility of DVS isotherm) ([6]; 25° C., one sorption/desorption cycle, 5% RH to 95% RH) | maximum increase in mass (moisture absorption) ([6]; 25° C./95% RH, humidity range 0% RH to 95% RH, reversible) | Structure (SMILES) | antibiotic activity of trans isomer relative to cis isomer [1] |
| --- | --- | --- | --- | --- | --- | --- | --- | --- | --- |
| – | – | – | – | – | – | – | – | Nc1nc(/C(=C/CC(=O)O)C(=O)N[C@@H]2C(=O)N3C(C(=O)O)=CCS[C@H]23)cs1 [Ceftibuten, (6R,7R)-7-((Z)-2-(2-amino-4-thiazolyl)-4-carboxycrotonamido)-8-oxo-5-thia-1-azabicyclo(4.2.0)oct-2-ene-2-carboxylic acid] | about one-eighth |
| the same | 0.77% | 9.7% | stable | stable | stable | does not change | about 3 wt % | CCOC(=O)C(C)(C)COS(=O)(=O)ON1C(=O)N2C[C@H]1CC[C@H]2C(N)=O [crystalline anhydrate (1), ethyl 3-(((((1R,2S,5R)-2-carbamoyl-7-oxo-1,6-diazabicyclo[3.2.1]octan-6-yl)oxy)sulfonyl)oxy)-2,2-dimethylpropanoate] | – |
